From patent US20240180989A1, “LIGUSTRUM LUCIDUM EXTRACT USEFUL FOR THE TREATMENT AND/OR CARE OF THE SKIN” (Lubrizol Advanced Materials, Inc., priority 2021, published 2024) come the findings set out here.

The subject of assay [1] is arginase. The assay can be described thus: Arginase activity reduction in human epidermal keratinocytes (colorimetric Arginase Activity kit). The assay is classed as cell-based. As to conditions: 1 mM, donor. Here is the method:
Human epidermal keratinocytes (HEK) of donor (Tebu Bio), donor (Promocell) and donor (Promocell) are seeded in 6-well plates at a density of 3×10^5 cells/well in keratinocyte growth medium supplemented with Mix C39016-CaCl2 solution (Promocell). […] The donor's cells treated with S-(2-Boronoethyl)-L-cysteine hydrochloride (BEC, Sigma) 1 mM are used as positive control of arginase inhibition, and the donor's, donor's and 26-year-old donor's cells treated with medium alone are used as basal control of arginase activity at different ages. Treatment is continued for 24 hours. After 24 hours, cells are lysed and are analyzed by a colorimetric Arginase Activity kit (Abcam) according to manufacturer's instructions. […] Absorbance is measured by using a microplate reader (Clariostar, BMG) set to 570 nm in a kinetic mode for 30 minutes. […] Arginase activity is calculated in the exponential phase of the kinetic for each sample with the following equation: AOD═(OD2−ODBG2)−(OD1−ODBG1); where: OD1 and OD2 is the sample reading at time T1 and T2 respectively, ODBG1 and ODBG2 is the sample background reading at time T1 and T2 respectively.
Total protein amount of each sample is determined using a Pierce BCA protein assay kit (Thermo fisher) according to the manufacturer's protocol. […] Afterwards, color change is measured with an absorbance microplate reader (Clariostar, BMG) at 562 nm. […]

For assay [2], the system named is peroxynitrite production in Human epidermal keratinocytes (HEK). The assay can be described thus: Quantification of peroxynitrite production in human epidermal keratinocytes. The assay is classed as cell-based. Conditions: 1 hour, per cell. Here is the method: Human epidermal keratinocytes (HEK) are seeded in 96-well plates at a density of 3×10^4 cells/well in keratinocyte growth medium supplemented with Mix C39016-CaCl2 solution (Promocell). After 24 hours incubation, medium is replaced with fresh culture medium with scalar dilutions of the subcritical water extract at 160° C. of Example 2. Treatment is continued for 24 hours and cells treated with medium alone are used as basal control. After 24 hours incubation, peroxynitrite production is measured by a fluorescence approach with Peroxynitrite assay kit (Abcam) following the manufacturer's instructions. In brief, cells are treated with 10 μl/well sensor green working solution during 1 hour in the medium. Cells treated with SIN-1 (Sigma) 11 mM or 5.76 mM during 1 hour in combination with sensor green solution are used as a positive control of peroxynitrite production. SIN-1 (Sigma) is a nitric oxide donor. After 1-hour incubation, fluorescence is measured with an […] microplate reader (Clariostar, BMG) at excitation 490 nm and emission 530 nm. […] Cell nuclei number is determined with a confocal microscopy Operetta (PerkinElmer). Peroxynitrite fluorescence intensity is normalized to cell number for each condition.
The results in Table 8 are expressed as a percentage of peroxynitrite per cell normalized by basal condition.

Consider `Cl.N[C@@H](CSCCB(O)O)C(=O)O` [BEC, S-(2-Boronoethyl)-L-cysteine hydrochloride], for which, in assay [1], the “Arginase activity MEAN subtracting basal condition and normalizing respect basal condition of cells” value is recorded as −10.58%. For the same molecule, the “Arginase activity MEAN respect basal condition of cells” value in assay [1] (24 h) was 70.10%.

Take `[NH-]c1c[n+](N2CCOCC2)no1` [SIN-1]: the “Peroxynitrite production MEAN respect basal condition” value in assay [2] (5.76 mM) is given as 2379.00%; in assay [2] (11 mM) it was 1654.00%.
